Measurements from patent publication US7595313B2, “Nitric oxide donating diuretic compounds, compositions and methods of use” (NicOx, S.A., priority 2005, dated 2009).
Counter-ions that a name gives are not always drawn.

Experiments:
[1] = tested on: Male Wistar rats; experiment: Determination of the diuresis (urine volume over 6 hours after oral dosing); assay type: in vivo, rat
Protocol: Procedures were approved by the Institutional Animal Care and Use Committee of NitroMed, Inc. Male Wistar rats (180-200 g) were purchased from Charles River Laboratories (Kingston, N.Y. or Raleigh, N.C.) and allowed to acclimate in the facility for a period of at least 72 h. Rats were randomly housed 2-3 per cage in a light-controlled room with a 12 hour light/dark cycle and allowed ad libitum access to food and water.
Prior to the experiment, each rat was placed in a metabolic cage and allowed to acclimate for a period of 24-48 hours with food and water ad libitum. During this acclimation period, rats received mash food instead of pellet food to prevent contamination of the urine samples. All rats were fasted for 18 hours prior to experimentation. In addition, water was removed 90 minutes prior to oral dosing with test compound or vehicle.
The test compounds were prepared immediately prior to dosing in 0.5% Methocel (F4M Premium Hydroxypropyl Methylcellulose, lot # PF12012N12; Dow Chemical Company, USA) and homogenized with a glass/Teflon pestle motorized homogenizer. Gently vortexed test compounds were administered intragastrically (p.o.; 30 mg/kg or 3 mg/kg) at a dose volume of 3 ml per rat using an 18 gauge gavage needle. Urine volume (ml) was monitored and urine was collected for subsequent electrolyte analysis over a 6 hours period. […] Data are expressed as mean ±SEM; n=6 or 7.

[2] = p.o. 30 mg/kg in 0.5% Methocel, male Wistar rats, 6 hours, mean ± SEM, n=6 or 7
[3] = p.o. 3 mg/kg in 0.5% Methocel, male Wistar rats, 6 hours, mean ± SEM, n=6 or 7

CN(CC1Nc2cc(Cl)c(S(N)(=O)=O)cc2S(=O)(=O)N1)C(=O)CN(CCO[N+](=O)[O-])CCO[N+](=O)[O-] (stereo not shown)
melting point: 183 to 185 °C (dec.)

Cc1c(C2Nc3cc(C(F)(F)F)c(S(N)(=O)=O)cc3S(=O)(=O)N2)no[n+]1[O-] (stereo not shown) (as salt: HCl) [Example 10, 2H-1,2,4-Benzothiadiazine-7-sulfonamide, 3,4-dihydro-3-(4-methyl-5-oxido-1,2,5-oxadiazol-3-yl)-6-(trifluoromethyl)-, 1,1-dioxide]
melting point: 160 °C

NS(=O)(=O)c1cc2c(cc1Cl)N=C(NC(=O)CCCCCO[N+](=O)[O-])NS2(=O)=O (as salt: hydrochloride) [Example 5b, Hexanamide, N-[7-(aminosulfonyl)-6-chloro-1,1-dioxido-2H-1,2,4-benzothiadiazin-3-yl]-6-(nitrooxy)-]
melting point: 177 to 179 °C

NS(=O)(=O)c1cc2c(cc1Cl)NCN(CCCCO[N+](=O)[O-])S2(=O)=O (as salt: potassium) [Example 40b, 2H-1,2,4-Benzothiadiazine-7-sulfonamide, 6-chloro-3,4-dihydro-2-[4-(nitrooxy)butyl]-, 1,1-dioxide]
melting point: 75 to 77 °C

NS(=O)(=O)c1cc2c(cc1Cl)N[C@@H](CCCCO[N+](=O)[O-])NS2(=O)=O (single isomer, unassigned) [17c (enantiomer 1)]
Urine collected in 6 hours (mL) (30 mg/kg) [1, 2]: 7.0 ± 0.6 mL

NS(=O)(=O)c1cc2c(cc1Cl)N[C@H](CCCCO[N+](=O)[O-])NS2(=O)=O (single isomer, unassigned) [17c (enantiomer 2)]
Urine collected in 6 hours (mL) (30 mg/kg) [1, 2]: 7.8 ± 0.5 mL

NS(=O)(=O)c1cc2c(cc1Cl)NCN(C[C@H](CO[N+](=O)[O-])O[N+](=O)[O-])S2(=O)=O (single isomer, unassigned) [75d (enantiomer 1)]
Urine collected in 6 hours (mL) (3 mg/kg) ([1]; rat, in vivo, po): 5.3 ± 0.3 mL

NS(=O)(=O)c1cc2c(cc1Cl)NCN(C[C@@H](CO[N+](=O)[O-])O[N+](=O)[O-])S2(=O)=O (single isomer, unassigned) [75d (enantiomer 2)]
Urine collected in 6 hours (mL) (3 mg/kg) ([1]; rat, in vivo, po): 5.5 ± 0.4 mL

NC1=Nc2cc(Cl)c(S(N)(=O)=O)cc2S(=O)(=O)N1 [Example 4b, 2H-1,2,4-Benzothiadiazine-7-sulfonamide, 3-amino-6-chloro-, 1,1-dioxide]
Urine collected in 6 hours (mL) (3 mg/kg) [1, 3]: 4.0 ± 0.5 mL

NS(=O)(=O)c1cc2c(cc1Cl)N=C(NC(=O)CCCCCO[N+](=O)[O-])NS2(=O)=O [Example 5b, Hexanamide, N-[7-(aminosulfonyl)-6-chloro-1,1-dioxido-2H-1,2,4-benzothiadiazin-3-yl]-6-(nitrooxy)-]
Urine collected in 6 hours (mL) (30 mg/kg) [1, 2]: 4.5 ± 0.5 mL

Cc1c(C2Nc3cc(C(F)(F)F)c(S(N)(=O)=O)cc3S(=O)(=O)N2)no[n+]1[O-] (stereo not shown) [Example 10, 2H-1,2,4-Benzothiadiazine-7-sulfonamide, 3,4-dihydro-3-(4-methyl-5-oxido-1,2,5-oxadiazol-3-yl)-6-(trifluoromethyl)-, 1,1-dioxide]
Urine collected in 6 hours (mL) (30 mg/kg) [1, 2]: 6.9 ± 0.9 mL

CC(C)(C)OC(=O)N1CCC2(CC1)Nc1cc(C(F)(F)F)c(S(N)(=O)=O)cc1S(=O)(=O)N2 [Example 12a, Spiro[2H-1,2,4-benzothiadiazine-3(4H), 4′-piperidine]-1′-carboxylic acid, 7-(aminosulfonyl)-6-(trifluoromethyl)-, 1,1-dimethylethyl ester, 1,1-dioxide]
Urine collected in 6 hours (mL) (30 mg/kg) [1, 2]: 4.0 ± 0.4 mL

NS(=O)(=O)c1cc2c(cc1C(F)(F)F)NC1(CCN(C(=O)CCCCO[N+](=O)[O-])CC1)NS2(=O)=O [Example 12c, Spiro[2H-1,2,4-benzothiadiazine-3(4H), 4′-piperidine]-7-sulfonamide, 1′-[5-(nitrooxy)-1-oxopentyl]-6-(trifluoromethyl)-, 1,1-dioxide]
melting point: 178 °C (dec.)

NS(=O)(=O)c1cc2c(cc1C(F)(F)F)NC1(CCN(C(=O)c3cccc(CO[N+](=O)[O-])c3)CC1)NS2(=O)=O [Example 15b, Spiro[2H-1,2,4-benzothiadiazine-3(4H), 4′-piperidine]-7-sulfonamide, 1′-[3-[(nitrooxy)methyl]benzoyl]-6-(trifluoromethyl)-, 1,1-dioxide]
Urine collected in 6 hours (mL) (30 mg/kg) [1, 2]: 4.5 ± 0.2 mL

NS(=O)(=O)c1cc2c(cc1Cl)NC1(CCN(C(=O)CCC(CO[N+](=O)[O-])O[N+](=O)[O-])CC1)NS2(=O)=O (stereo not shown) [Example 22b, Spiro[2H-1,2,4-benzothiadiazine-3(4H), 4′-piperidine]-7-sulfonamide, 1′-[4,5-bis(nitrooxy)-1-oxopentyl]-6-chloro-, 1,1-dioxide]
Urine collected in 6 hours (mL) (30 mg/kg) ([1]; rat, in vivo, po): 2.5 ± 0.2 mL

NS(=O)(=O)c1cc2c(cc1Cl)NCN(CC(=O)O)S2(=O)=O [Example 31a, 2H-1,2,4-Benzothiadiazine-2-acetic acid, 7-(aminosulfonyl)-6-chloro-3,4-dihydro-, 1,1-dioxide]
Urine collected in 6 hours (mL) (3 mg/kg) [1, 3]: 2.5 ± 0.3 mL

NS(=O)(=O)c1cc2c(cc1Cl)NCN(CC(=O)OC[C@H](CO[N+](=O)[O-])O[N+](=O)[O-])S2(=O)=O [Example 31b, 2H-1,2,4-Benzothiadiazine-2-acetic acid, 7-(aminosulfonyl)-6-chloro-3,4-dihydro-, (2R)-2,3-bis(nitrooxy)propyl ester, 1,1-dioxide]
Urine collected in 6 hours (mL) (3 mg/kg) ([1]; rat, in vivo, po): 2.0 ± 0.3 mL

NS(=O)(=O)c1cc2c(cc1Cl)NC(CBr)NS2(=O)=O (stereo not shown) [Example 36a, 2H-1,2,4-Benzothiadiazine-7-sulfonamide, 3-(bromomethyl)-6-chloro-3,4-dihydro-, 1,1-dioxide]
Urine collected in 6 hours (mL) (3 mg/kg) [1, 3]: 5.5 ± 0.6 mL

NS(=O)(=O)c1cc2c(cc1Cl)NC(CN1CCC(CCO[N+](=O)[O-])CC1)NS2(=O)=O.O=C(O)CC(O)(CC(=O)O)C(=O)O (stereo not shown) [Example 36c, 2H-1,2,4-Benzothiadiazine-7-sulfonamide, 6-chloro-3,4-dihydro-3-[[4-[2-(nitrooxy)ethyl]-1-piperidinyl]methyl]-, 1,1-dioxide, 2-hydroxy-1,2,3-propanetricarboxylate (1:1) (salt)]
Urine collected in 6 hours (mL) (3 mg/kg) [1, 3]: 3.0 ± 0.4 mL

NS(=O)(=O)c1cc2c(cc1Cl)NCN(CC(=O)N(CCO[N+](=O)[O-])CCO[N+](=O)[O-])S2(=O)=O [Example 39, 2H-1,2,4-Benzothiadiazine-2-acetamide, 7-(aminosulfonyl)-6-chloro-3,4-dihydro-N,N-bis[2-(nitrooxy)ethyl]-, 1,1-dioxide]
Urine collected in 6 hours (mL) (3 mg/kg) ([1]; rat, in vivo, po): 2.5 ± 0.5 mL

NS(=O)(=O)c1cc2c(cc1Cl)NCN(CCCCO[N+](=O)[O-])S2(=O)=O [Example 40b, 2H-1,2,4-Benzothiadiazine-7-sulfonamide, 6-chloro-3,4-dihydro-2-[4-(nitrooxy)butyl]-, 1,1-dioxide]
Urine collected in 6 hours (mL) (3 mg/kg) [1, 3]: 6.0 ± 0.7 mL

NS(=O)(=O)c1cc2c(cc1Cl)NCN(CCOC(=O)CCC(CO[N+](=O)[O-])O[N+](=O)[O-])S2(=O)=O (stereo not shown) [Example 42, Pentanoic acid, 4,5-bis(nitrooxy)-, 2-[7-(aminosulfonyl)-6-chloro-3,4-dihydro-1,1-dioxido-2H-1,2,4-benzothiadiazin-2-yl]ethyl ester]
Urine collected in 6 hours (mL) (3 mg/kg) ([1]; rat, in vivo, po): 6.2 ± 0.3 mL

NS(=O)(=O)c1cc2c(cc1Cl)NCN(CCOC(=O)CCCCO[N+](=O)[O-])S2(=O)=O [Example 44, Pentanoic acid, 5-(nitrooxy)-, 2-[7-(aminosulfonyl)-6-chloro-3,4-dihydro-1,1-dioxido-2H-1,2,4-benzothiadiazin-2-yl]ethyl ester]
Urine collected in 6 hours (mL) (3 mg/kg) [1, 3]: 2.5 ± 0.3 mL

NS(=O)(=O)c1cc2c(cc1Cl)NCN(CCCCOc1cc(CO)cc(CO)c1)S2(=O)=O [Example 69a, 2H-1,2,4-Benzothiadiazine-7-sulfonamide, 2-[4-[3,5-bis(hydroxymethyl)phenoxy]butyl]-6-chloro-3,4-dihydro-, 1,1-dioxide]
Urine collected in 6 hours (mL) (3 mg/kg) [1, 3]: 2.7 ± 0.6 mL

NS(=O)(=O)c1cc2c(cc1Cl)NCN(CCCOc1cc(CO)cc(CO)c1)S2(=O)=O [Example 70b, 2H-1,2,4-Benzothiadiazine-7-sulfonamide, 2-[3-[3,5-bis(hydroxymethyl)phenoxy]propyl]-6-chloro-3,4-dihydro-, 1,1-dioxide]
Urine collected in 6 hours (mL) (3 mg/kg) [1, 3]: 2.8 ± 0.7 mL

NS(=O)(=O)c1cc2c(cc1Cl)NCN(CCOc1cc(CO)cc(CO)c1)S2(=O)=O [Example 71b, 2H-1,2,4-Benzothiadiazine-7-sulfonamide, 2-[2-[3,5-bis(hydroxymethyl)phenoxy]ethyl]-6-chloro-3,4-dihydro-, 1,1-dioxide]
Urine collected in 6 hours (mL) (3 mg/kg) [1, 3]: 2.1 ± 0.5 mL

NS(=O)(=O)c1cc2c(cc1Cl)NCN(CC(O)CO)S2(=O)=O (stereo not shown) [Example 75b, 2H-1,2,4-Benzothiadiazine-7-sulfonamide, 6-chloro-2-(2,3-dihydroxypropyl)-3,4-dihydro-, 1,1-dioxide]
Urine collected in 6 hours (mL) (3 mg/kg) [1, 3]: 4.6 ± 0.6 mL

NS(=O)(=O)c1cc2c(cc1Cl)NCN(CC(CO[N+](=O)[O-])O[N+](=O)[O-])S2(=O)=O (stereo not shown) [Example 75c, 2H-1,2,4-Benzothiadiazine-7-sulfonamide, 2-[2,3-bis(nitrooxy)propyl]-6-chloro-3,4-dihydro-, 1,1-dioxide]
Urine collected in 6 hours (mL) (3 mg/kg) ([1]; rat, in vivo, po): 5.4 ± 0.6 mL
